This test deals with T1, h5-HT4b (Homo sapiens, UniProt Q13639).
T1 construct: expressed in transfected cells; host or cells: HEK 293 (clone 9), membrane preparation
Put plainly: 5HT4 antagonism: [3H]GR113808 binding to membranes of h5-HT4b-HEK 293 clone 9 cells. Particulars: [3H]GR113808 0.1 nM, h5-HT4b-HEK 293 membranes, 30 min at 25° C. The method, then: h5-HT4b-HEK 293 clone 9 cells were cultured in 150 mm Petri dishes and washed twice with cold PBS. The cells were then scraped from the plates and suspended in 50 mM Tris-HCl buffer, pH 7.4 and harvested by centrifugation at 23,500 rpm for 10 minutes. The pellet was resuspended in 5 mM Tris-HCl, pH 7.4 and homogenized with an Ultra Turrax homogenizer. The membranes were collected by centrifugation at 30,000 rpm for 20 min, resuspended in 50 mM Tris-HCl pH 7.4 and stored at −80° C. For the experiment, assay mixtures (0.5 ml) contained 50 μl of the tritiated ligand (5-HT4 antagonist [^3H]GR113808 0.1 nM) and 0.4 ml membrane preparation (15 μg protein/ml). 50 μl of 10% DMSO was added for total binding. 50 μl of 1 μM of (+)-trans-(1-butyl-3-hydroxy4-piperidinyl)methyl 8-amino-7-chloro-2,3-dihydro-1,4-benzodioxin-5-carboxylate (a proprietary 5HT4 agonist of Janssen Pharmaceutica) was added for determination of non-specific binding.
The [^3H]GR113808 assay buffer was 50 mM HEPES-NaOH, pH 7.4. The mixtures were incubated for 30 min at 25° C. The incubation was terminated by filtration over a Unifilter 96 GF/B presoaked in 0.1% polyethylenimine, followed by six washing steps with 50 mM HEPES-NaOH, pH 7.4.

Data on 64 compounds can be found in patent publication US7635706B2, “5HT4-antagonistic 4-(aminomethyl)-piperidine benzamides” (Janssen Pharmaceutica NV, priority 2003, dated 2009).

T1 sequence (Q13639 whole entry): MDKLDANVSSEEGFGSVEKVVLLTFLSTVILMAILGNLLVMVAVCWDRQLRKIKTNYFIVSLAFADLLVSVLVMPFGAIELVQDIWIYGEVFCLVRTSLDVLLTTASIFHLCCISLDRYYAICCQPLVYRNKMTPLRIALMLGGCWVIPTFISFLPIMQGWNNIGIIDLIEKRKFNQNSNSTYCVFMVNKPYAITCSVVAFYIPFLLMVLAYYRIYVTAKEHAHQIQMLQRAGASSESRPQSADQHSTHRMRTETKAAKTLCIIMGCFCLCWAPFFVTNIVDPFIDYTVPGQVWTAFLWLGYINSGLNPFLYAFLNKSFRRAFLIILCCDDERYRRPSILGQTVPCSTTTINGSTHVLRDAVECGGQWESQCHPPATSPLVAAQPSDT

As a reminder, the IC50 is the concentration that gives 50% inhibition. A lower IC50 goes with greater potency. `Cc1ccc(C(=O)NC[C@@H]2CCN(CCCO)C[C@H]2O)c2c1OCCCO2` [compound 3] gave an IC50 of 1.7 nM. In turn, `CNCCCCN1CC[C@@H](CNC(=O)c2ccc(C)c3c2OCCCO3)[C@H](O)C1` [compound 4] gave an IC50 of 6.92 nM. Regarding `COc1c(Cl)cc(C(=O)NC[C@@H]2CCN(CCCO)C[C@H]2O)c2c1OCCO2` [compound 5], the IC50 was 5.5 nM. The value for `COCCCN1CC[C@@H](CNC(=O)c2cc(Cl)c(OC)c3c2OCCO3)[C@H](O)C1` [compound 6] was 6.46 nM. In turn, `COc1c(Cl)cc(C(=O)NC[C@@H]2CCNC[C@H]2O)c2c1OCCO2` [compound 8] gave an IC50 of 77.6 nM. The compound `COc1c(Cl)cc(C(=O)NC[C@@H]2CCN(CC3OCCO3)C[C@H]2O)c2c1OCCO2` [compound 9] gave an IC50 of 7.94 nM. With `N#CCCCN1CC[C@@H](CNC(=O)c2cc(Cl)c(Br)c3c2OCCCO3)[C@H](O)C1` [compound 10], the IC50 was 3.02 nM. On to `O=C(NC[C@@H]1CCNC[C@H]1O)c1cc(Cl)c(Br)c2c1OCCCO2` [compound 11], for which the IC50 is 5.89 nM. `COc1c(Cl)cc(C(=O)NC[C@@H]2CCNC[C@H]2O)c2c1OCCCO2` [compound 12] showed an IC50 of 43.7 nM.

The compound `COc1c(Cl)cc(C(=O)NC[C@@H]2CCN(CCCO)C[C@H]2O)c2c1OCCCO2` [compound 13] had an IC50 of 5.37 nM. In turn, `COCCCN1CC[C@@H](CNC(=O)c2cc(Cl)c(OC)c3c2OCCCO3)[C@H](O)C1` [compound 14] showed an IC50 of 2.63 nM. Consider `COc1c(Cl)cc(C(=O)NC[C@@H]2CCN(CCOCCO)C[C@H]2O)c2c1OCCO2` [compound 15], for which the IC50 was 9.55 nM. The value for `CCCCN1CC[C@@H](CNC(=O)c2cc(Cl)c(OC)c3c2OCCCO3)[C@H](O)C1` [compound 17] was 3.8 nM; that for `COc1c(Cl)cc(C(=O)NC[C@@H]2CCN(CC3OCCO3)C[C@H]2O)c2c1OCCCO2` [compound 18] was 24 nM; that for `O=C(NC[C@@H]1CCN(CCCO)C[C@H]1O)c1cc(Cl)c(Cl)c2c1OCCCO2` [compound 19] was 2.69 nM.

For the compound `O=C(NC[C@@H]1CCNC[C@H]1O)c1cc(Cl)c(Cl)c2c1OCCCO2` [compound 20], the IC50 is 3.63 nM.

With `O=C(NC[C@@H]1CCN(CCOCCO)C[C@H]1O)c1cc(Cl)c(Cl)c2c1OCCCO2` [compound 21], the IC50 was 3.89 nM. The IC50 values of the last two compounds are within 1.5-fold of each other. For `CCCCN1CC[C@@H](CNC(=O)c2cc(Cl)c(Br)c3c2OCCCO3)[C@H](O)C1` [compound 22], the IC50 is 1.41 nM. With `COc1c(Cl)cc(C(=O)NC[C@@H]2CCN(CCOCCO)C[C@H]2O)c2c1OCCCO2` [compound 23], the IC50 was 17.4 nM. `O=C(NC[C@@H]1CCN(CCCO)C[C@H]1O)c1cc(Cl)c(Br)c2c1OCCCO2` [compound 24] gave an IC50 of 1.78 nM.

For the compound `O=C(NC[C@@H]1CCN(CCOCCO)C[C@H]1O)c1cc(Cl)c(Br)c2c1OCCCO2` [compound 25], the IC50 is 3.09 nM.

For the compound `O=C(NC[C@@H]1CCN(CC2OCCO2)C[C@H]1O)c1cc(Cl)c(Br)c2c1OCCCO2` [compound 26], the IC50 is 6.31 nM. `O=C(NC[C@@H]1CCN(CCC2OCCO2)C[C@H]1O)c1cc(Cl)c(Br)c2c1OCCCO2` [compound 27] gave an IC50 of 4.9 nM. This IC50 and that of the compound before are within 1.5-fold of each other. For `CO[C@@H]1CN(CCCC#N)CC[C@H]1CNC(=O)c1cc(Cl)c(Br)c2c1OCCCO2` [compound 28] the value was 6.31 nM; for `COc1c(Cl)cc(C(=O)NC[C@@H]2CCN(CCC3OCCO3)C[C@H]2O)c2c1OCCCO2` [compound 29], 6.46 nM. The compound `COc1c(Cl)cc(C(=O)NC[C@@H]2CCN(CCCC#N)C[C@H]2O)c2c1OCCO2` [compound 30] showed an IC50 of 12.6 nM. Compound `COc1c(Cl)cc(C(=O)NC[C@@H]2CCN(CCC3OCCO3)C[C@H]2O)c2c1OCCO2` [compound 31] had an IC50 of 7.08 nM. Against the preceding compound, the IC50 is about 1.8-fold lower. `COc1c(Cl)cc(C(=O)NC[C@@H]2CCN(CC3CCCO3)C[C@H]2O)c2c1OCCO2` (stereo partly shown) [compound 32] showed an IC50 of 8.71 nM. In the case of `COc1c(Cl)cc(C(=O)NC[C@@H]2CCN(CC3CCCO3)C[C@H]2O)c2c1OCCCO2` (stereo partly shown) [compound 33], the IC50 is 1.2 nM.

As for `COc1c(Cl)cc(C(=O)NC[C@@H]2CCN(CCCC#N)C[C@H]2O)c2c1OCCCO2` [compound 34], the concentration for half-maximal inhibition (IC50) is 1 nM.

Compound `CO[C@@H]1CNCC[C@H]1CNC(=O)c1cc(Cl)c(Br)c2c1OCCCO2` [compound 35] had an IC50 of 23.4 nM. Consider `CNCCCN1CC[C@@H](CNC(=O)c2cc(Cl)c(OC)c3c2OCCCO3)[C@H](O)C1` [compound 36], for which the IC50 is 38 nM.

Compound `COCCCN1CC[C@@H](CNC(=O)c2cc(Cl)c(Cl)c3c2OCCCO3)[C@H](O)C1` [compound 37] showed an IC50 of 3.89 nM. For `COCCCN1CC[C@@H](CNC(=O)c2cc(Cl)c(Br)c3c2OCCCO3)[C@H](O)C1` [compound 38], the IC50 was 2.95 nM. The IC50 values of the last two compounds are within 1.5-fold of each other. Turning to `O=C(NC[C@@H]1CCN(CC2CCCO2)C[C@H]1O)c1cc(Cl)c(Br)c2c1OCCCO2` (stereo partly shown) [compound 39], the IC50 was 3.89 nM.

For `CNCCCCN1CC[C@@H](CNC(=O)c2cc(Cl)c(OC)c3c2OCCCO3)[C@H](O)C1` [compound 40], the IC50 is 14.1 nM. On to `COc1c(Cl)cc(C(=O)NC[C@@H]2CCN(CC3CCCO3)C[C@H]2OC)c2c1OCCO2` (stereo partly shown) [compound 41], for which the IC50 was 16.2 nM. The compound `CNCCN1CC[C@@H](CNC(=O)c2cc(Cl)c(Br)c3c2OCCCO3)[C@H](O)C1` [compound 42] had an IC50 of 27.5 nM. With `CNCCCCN1CC[C@@H](CNC(=O)c2cc(Cl)c(OC)c3c2OCCO3)[C@H](O)C1` [compound 43], the IC50 is 23.4 nM. On to `CNCCCN1CC[C@@H](CNC(=O)c2cc(Cl)c(OC)c3c2OCCO3)[C@H](O)C1` [compound 44], for which the IC50 is 28.8 nM.

Compound `CO[C@@H]1CN(CCCO)CC[C@H]1CNC(=O)c1cc(Cl)c(Br)c2c1OCCCO2` [compound 45] showed an IC50 of 7.41 nM.

Turning to `CO[C@@H]1CN(CCC2OCCO2)CC[C@H]1CNC(=O)c1cc(Cl)c(Br)c2c1OCCCO2` [compound 46], the IC50 is 6.03 nM. `CNCCN1CC[C@@H](CNC(=O)c2cc(Cl)c(Br)c3c2OCCCO3)[C@H](OC)C1` [compound 48] gave an IC50 of 57.5 nM. As to `CO[C@@H]1CNCC[C@H]1CNC(=O)c1cc(Cl)c(Cl)c2c1OCCCO2` [compound 49], the IC50 is 8.13 nM. The value for `CO[C@@H]1CN(CC2CCCO2)CC[C@H]1CNC(=O)c1cc(Cl)c(Br)c2c1OCCCO2` (stereo partly shown) [compound 50] was 4.37 nM. For the compound `CO[C@@H]1CN(CCOCCO)CC[C@H]1CNC(=O)c1cc(Cl)c(Br)c2c1OCCCO2` [compound 51], the IC50 was 5.13 nM. For `COc1c(Cl)cc(C(=O)NC[C@@H]2CCNC[C@H]2OC)c2c1OCCO2` [compound 52] the value was 457 nM; for `COc1c(Cl)cc(C(=O)NC[C@@H]2CCN(CCCO)C[C@H]2OC)c2c1OCCO2` [compound 53], 20 nM.

The compound `COCCCN1CC[C@@H](CNC(=O)c2cc(Cl)c(Br)c3c2OCCCO3)[C@H](OC)C1` [compound 54] gave an IC50 of 4.9 nM. The compound `COc1c(Cl)cc(C(=O)NC[C@@H]2CCN(CCOCCO)C[C@H]2OC)c2c1OCCO2` [compound 55] gave an IC50 of 166 nM.

On to `CO[C@@H]1CN(CCCC#N)CC[C@H]1CNC(=O)c1cc(Cl)c(Cl)c2c1OCCCO2` [compound 56], for which the IC50 is 3.89 nM. Consider `COc1c(Cl)cc(C(=O)NC[C@@H]2CCN(CCCO)C[C@H]2OC)c2c1OCCCO2` [compound 57], for which the IC50 is 36.3 nM. The compound `CCCCN1CC[C@@H](CNC(=O)c2cc(Cl)c(Br)c3c2OCCCO3)[C@H](OC)C1` [compound 58] had an IC50 of 2.34 nM. `COCCCN1CC[C@@H](CNC(=O)c2cc(Cl)c(Cl)c3c2OCCCO3)[C@H](OC)C1` [compound 59] showed an IC50 of 3.72 nM.

As to `COc1c(Cl)cc(C(=O)NC[C@@H]2CCN(CCn3ccn(C(C)C)c3=O)C[C@H]2O)c2c1OCCO2` [compound 60], the IC50 is 35.5 nM. The compound `CNCCCCN1CC[C@@H](CNC(=O)c2cc(Cl)c(OC)c3c2OCCCO3)[C@H](OC)C1` [compound 61] gave an IC50 of 85.1 nM. Take `CNCCCN1CC[C@@H](CNC(=O)c2cc(Cl)c(OC)c3c2OCCCO3)[C@H](OC)C1` [compound 62]: the IC50 was 490 nM.

In turn, `CNCCCN1CC[C@@H](CNC(=O)c2cc(Cl)c(Br)c3c2OCCCO3)[C@H](OC)C1` [compound 63] gave an IC50 of 9.77 nM. Against the preceding compound, the IC50 is about 50-fold lower. `CNCCCCN1CC[C@@H](CNC(=O)c2cc(Cl)c(Br)c3c2OCCCO3)[C@H](O)C1` [compound 64] showed an IC50 of 1.55 nM. Compared with the last compound, the IC50 is about 6.3-fold lower. `CNCCCCN1CC[C@@H](CNC(=O)c2cc(Cl)c(Br)c3c2OCCCO3)[C@H](OC)C1` [compound 65] had an IC50 of 4.47 nM. As for `COc1c(Cl)cc(C(=O)NC[C@@H]2CCN(CC3OCCO3)C[C@H]2OC)c2c1OCCCO2` [compound 66], the IC50 is 132 nM. This IC50 lies about 30-fold higher than the previous one. The value for `COCCCN1CC[C@@H](CNC(=O)c2cc(Cl)c(OC)c3c2OCCCO3)[C@H](OC)C1` [compound 67] was 22.4 nM.

`COc1c(Cl)cc(C(=O)NC[C@@H]2CCN(CCOCCO)C[C@H]2OC)c2c1OCCCO2` [compound 68] gave an IC50 of 93.3 nM. Against the preceding compound, the IC50 is about 4.2-fold higher. In the case of `COc1c(Cl)cc(C(=O)NC[C@@H]2CCN(CCCC#N)C[C@H]2OC)c2c1OCCCO2` [compound 69], the IC50 was 79.4 nM.
